Counter-ions that a name gives are not always drawn. Like-named read-outs stand apart in the source and are kept apart here.
Columns and labels:
[1] = biological target: T1, wild-type Androgen Receptor (AR-wt) (Homo sapiens, UniProt P10275); experiment: AR reporter assay, LNCaP-AR-wt ANT (antagonist mode); format: cell-based; settings: for Emax: read-out: LNCaP-AR-wt ANT MAX % Inh
T1 construct: expressed in transfected cells; host or cells: LNCaP
T1 sequence (P10275 1-920): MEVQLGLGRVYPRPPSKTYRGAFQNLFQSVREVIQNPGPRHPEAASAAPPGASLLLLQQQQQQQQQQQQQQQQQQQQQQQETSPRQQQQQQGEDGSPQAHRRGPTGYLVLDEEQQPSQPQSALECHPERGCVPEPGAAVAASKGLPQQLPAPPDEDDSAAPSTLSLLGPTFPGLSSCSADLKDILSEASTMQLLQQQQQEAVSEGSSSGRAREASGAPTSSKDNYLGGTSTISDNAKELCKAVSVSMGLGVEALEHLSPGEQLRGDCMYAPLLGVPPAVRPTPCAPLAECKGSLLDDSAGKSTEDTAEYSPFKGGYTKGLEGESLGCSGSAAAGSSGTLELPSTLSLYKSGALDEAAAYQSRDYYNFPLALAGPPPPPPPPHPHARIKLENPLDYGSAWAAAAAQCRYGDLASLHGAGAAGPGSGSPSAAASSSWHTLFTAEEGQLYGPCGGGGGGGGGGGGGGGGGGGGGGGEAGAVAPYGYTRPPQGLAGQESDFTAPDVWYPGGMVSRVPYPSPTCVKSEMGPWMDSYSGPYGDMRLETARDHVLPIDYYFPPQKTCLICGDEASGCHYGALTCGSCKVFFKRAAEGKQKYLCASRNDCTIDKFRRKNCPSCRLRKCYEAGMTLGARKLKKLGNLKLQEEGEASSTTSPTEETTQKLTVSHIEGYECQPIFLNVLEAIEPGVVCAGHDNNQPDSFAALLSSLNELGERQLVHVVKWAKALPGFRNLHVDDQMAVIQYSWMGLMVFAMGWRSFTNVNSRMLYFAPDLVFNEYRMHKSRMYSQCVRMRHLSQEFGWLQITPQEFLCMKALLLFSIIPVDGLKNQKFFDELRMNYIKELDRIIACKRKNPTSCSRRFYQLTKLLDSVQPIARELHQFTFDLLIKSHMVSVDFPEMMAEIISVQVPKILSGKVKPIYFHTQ
From the text: LNCaP AR (cs) and LNCaP F876L luciferase cell lines were generated by transduction of each cell line (description of cell line generation Joseph J D, Lu N, Qian J, Sensintaffar J, Shao G, Brigham D, Moon M, Maneval E C, Chen I, Darimont B, Hager J H. A clinically relevant androgen receptor mutation confers resistance to second-generation antiandrogens enzalutamide and ARN-509. Cancer Discov 2013; 3:1020-1029) with an Androgen Response Element Firefly Luciferase lentiviral construct at an MOI (multiplicity of infection) of 50 following the manufacturer's instructions (Qiagen). A stable pooled-population cell line was generated using puromycin (Life Technologies) selection at 1:10,000 v/v. The protocol below was used for both cell lines and for testing of the compounds of Formula (I) of the present invention.
LNCaP cells were grown to about 80% confluence, media removed and cells rinsed in Hank's balanced salt solution prior to separation from the plate with 0.05% Trypsin EDTA. Cells were lifted and trypsin negated in complete CSS (charcoal stripped serum) culture media. CSS was maintained on cells for 24 h prior to assay, at which time 5,000 cells/[…] were seeded in Greiner 384 well White/White Tissue Culture Treated Plates and incubated for a further 1-2 hours at 37° C., 5% CO2, prior to addition of 10 μL of 4× Test Compounds (compounds described herein) or Assay Controls (all diluted in complete media containing 10% css). A further 10 μL of 4× R-1881 Agonist Challenge (antagonist assay) or Buffer (agonist assay) was then added (all diluted in complete media containing 10% css). Agonist challenge was at 400 pM for WT assay and 600 pM for F876L assay. Plates containing cells and compounds herein were incubated for a further 20-24 hours at 37° C., 5% CO2 before addition of 40 μL/well of Steady-Glo Luciferase Assay System Reagent (Promega#E2520). After 1 h, plates were read for luminescence on a BMG Pherastar.
Agonist challenge: R-1881 (Metribolone)—Agonist
Antagonist control (low control): 5-(5-(4-((1-Methylpiperidin-4-yl)oxy)phenyl)-8-oxo-6-thioxo-5,7-diazaspiro[3.4]octan-7-yl)-3-(trifluoromethyl)picolinonitrile (WO 2011/103202, EXAMPLE 19, Compound 129, CAS #1332390-06-3).
(1−(Sample RLU−Ave Low Control RLU[10 μM Antagonist Control])/(Ave High Control RLU [400 pM R-1881]−Ave Low Control RLU[10 μM Antagonist Control]))*100.
EC/IC50 calculations were achieved utilizing calculated RLU data and data fitting macros. Data were fit using least-squares methods to the following formula: […]
As used herein: • pIC50 is defined as −Log10(IC50 expressed in [Molar]). • pEC50 is defined as −Log10(EC50 expressed in [Molar]). • MAX % Inh is defined as the maximum % inhibition of R1881 control response observed for a compound over the tested concentration range. • MAX % Stim is defined as the maximum % stimulation (agonist response) observed for a compound over the tested concentration range. • LNCaP-AR-wt ANT refers to the reporter assay using LNCaP cells stably transfected with the Androgen Response Element Firefly Luciferase lentiviral construct and wild-type Androgen Receptor (AR-wt) in Antagonist mode. • LNCaP-AR-wt AG refers to the reporter assay using LNCaP cells stably transfected with the Androgen Response Element Firefly Luciferase lentiviral construct and wild-type Androgen Receptor (AR-wt) in Agonist mode. • LNCaP-AR-F876L ANT refers to the reporter assay using LNCaP cells stably transfected with the Androgen Response Element Firefly Luciferase lentiviral construct and F876L mutant Androgen Receptor (AR-F876L) in Antagonist mode. • LNCaP-AR-F876L AG refers to the reporter assay using LNCaP cells stably transfected with the Androgen Response Element Firefly Luciferase lentiviral construct and F876L mutant Androgen Receptor (AR-F876L) in Agonist mode.

LNCaP WT = experiment: LNCaP Proliferation Assay, LNCaP WT; format: cell-based; settings: Homo sapiens, 96 h, 1% CSS, 4 days, CellTiter-Glo, normalized to 0.1 nM R1881 stimulation
Description: LNCaP cells were expanded in RPMI 10% FBS in T150 flasks. The cells were dislodged with 0.25% Trypsin, washed in complete media, centrifuged (300 g, 3 min), and the supernatant aspirated. The cells were resuspended in RPMI phenol-red free media with 1% charcoal-stripped serum (CSS) and counted using a ViCELL (Beckman-Coulter). 7500 cells were added to each well of a white optical bottom 384-well plate and incubated for 2 days at 37° C. 5% CO2. Compound dilutions were prepared in RPMI CSS using 50 mM stock solutions and added to the cells either alone (agonist mode) or in combination with 0.1 nM R1881 (antagonist mode). The plates were incubated for 4 days, followed by addition of CellTiter-Glo Luminescent Cell Viability kit reagent (Promega). The plates were placed on a shaker at 3000 rpm for 10 minutes and then read on an EnVision plate reader (Perkin Elmer) using Luminescence assay default settings. The data was analyzed, normalized to 0.1 nM R1881 stimulation, and plotted in GraphPad Prism.

[2] = antagonist mode, 400 pM R-1881 challenge, luciferase reporter, -Log10(IC50 in Molar), read-out: LNCaP-AR-wt ANT pIC50 (converted)

Row | SMILES | IC50 [1] [µM] | Emax [1] [%] | IC50 (LNCaP WT) [µM] | IC50 [1, 2] [µM]
1 | CC1(C)C(=O)N(c2ccc(C#N)c(C(F)(F)F)c2)C(=S)N1c1ccc(OC2CCNCC2)cc1 [Compound 1, 4-(4,4-Dimethyl-5-oxo-3-(4-(piperidin-4-yloxy)phenyl)-2-thioxoimidazolidin-1-yl)-2-(trifluoromethyl)benzonitrile] | 0.0759 | 106 |  | 
2 | CN1CCC(Oc2ccc(N3C(=S)N(c4ccc(C#N)c(C(F)(F)F)c4)C(=O)C3(C)C)cc2)CC1 [Compound 2, 4-(4,4-Dimethyl-3-(4-((1-methylpiperidin-4-yl)oxy)phenyl)-5-oxo-2-thioxoimidazolidin-1-yl)-2-(trifluoromethyl)benzonitrile hydrochloride] | 0.0977 | 104 | 1.37 | 
3 | CC1(C)C(=O)N(c2ccc(C#N)c(C(F)(F)F)c2)C(=S)N1c1ccc(OC2CCNCC2)nc1 [Compound 3, 4-(4,4-Dimethyl-5-oxo-3-(6-(piperidin-4-yloxy)pyridin-3-yl)-2-thioxoimidazolidin-1-yl)-2-(trifluoromethyl)benzonitrile hydrochloride] | 0.0468 | 103 |  | 
4 | CN1CCC(Oc2ccc(N3C(=S)N(c4ccc(C#N)c(C(F)(F)F)c4)C(=O)C3(C)C)cn2)CC1 [Compound 4, 4-(4,4-Dimethyl-3-(6-((1-methylpiperidin-4-yl)oxy)pyridin-3-yl)-5-oxo-2-thioxoimidazolidin-1-yl)-2-(trifluoromethyl)benzonitrile hydrochloride] | 0.0891 | 102 | 0.46 | 
5 | CC1(C)C(=O)N(c2ccc(C#N)c(C(F)(F)F)c2)C(=S)N1c1cnc(OC2CCNCC2)nc1 [Compound 5, 4-(4,4-Dimethyl-5-oxo-3-(2-(piperidin-4-yloxy)pyrimidin-5-yl)-2-thioxoimidazolidin-1-yl)-2-(trifluoromethyl)benzonitrile] | 0.17 | 101 | 1.04 | 
6 | CN1CCC(Oc2ncc(N3C(=S)N(c4ccc(C#N)c(C(F)(F)F)c4)C(=O)C3(C)C)cn2)CC1 [Compound 6, 4-(4,4-Dimethyl-3-(2-((1-methylpiperidin-4-yl)oxy)pyrimidin-5-yl)-5-oxo-2-thioxoimidazolidin-1-yl)-2-(trifluoromethyl)benzonitrile] | 0.0912 | 102 |  | 
7 | CC1(C)C(=O)N(c2ccc(C#N)c(Cl)c2)C(=S)N1c1ccc(OC2CCNCC2)cc1 [Compound 7, 2-Chloro-4-(4,4-dimethyl-5-oxo-3-(4-(piperidin-4-yloxy)phenyl)-2-thioxoimidazolidin-1-yl)benzonitrile hydrochloride] | 0.0617 | 101 | 10 | 
8 | CN1CCC(Oc2ccc(N3C(=S)N(c4ccc(C#N)c(Cl)c4)C(=O)C3(C)C)cc2)CC1 [Compound 8, 2-Chloro-4-(4,4-dimethyl-3-(4-((1-methylpiperidin-4-yl)oxy)phenyl)-5-oxo-2-thioxoimidazolidin-1-yl)benzonitrile hydrochloride] | 0.0813 | 103 |  | 
9 | CC1(C)C(=O)N(c2ccc(C#N)c(Cl)c2)C(=S)N1c1ccc(OC2CCNCC2)nc1 [Compound 9, 2-Chloro-4-(4,4-dimethyl-5-oxo-3-(6-(piperidin-4-yloxy)pyridin-3-yl)-2-thioxoimidazolidin-1-yl)benzonitrile hydrochloride] | 0.0575 | 102 |  | 
10 | N#Cc1ccc(N2C(=O)C3(CCC3)N(c3ccc(OC4CCNCC4)cc3)C2=S)cc1C(F)(F)F [Compound 11, 4-(8-Oxo-5-(4-(piperidin-4-yloxy)phenyl)-6-thioxo-5,7-diazaspiro[3.4]octan-7-yl)-2-(trifluoromethyl)benzonitrile] | 0.331 | 105 |  | 
11 | CN1CCC(Oc2ccc(N3C(=S)N(c4ccc(C#N)c(C(F)(F)F)c4)C(=O)C34CCC4)cc2)CC1 [Compound 12, 4-(5-(4-((1-Methylpiperidin-4-yl)oxy)phenyl)-8-oxo-6-thioxo-5,7-diazaspiro[3.4]octan-7-yl)-2-(trifluoromethyl)benzonitrile] | 0.324 | 104 |  | 
12 | CN1CCC(Oc2ncc(N3C(=S)N(c4ccc(C#N)c(C(F)(F)F)c4)C(=O)C34CCC4)cn2)CC1 [Compound 16, 4-(5-(2-((1-Methylpiperidin-4-yl)oxy)pyrimidin-5-yl)-8-oxo-6-thioxo-5,7-diazaspiro[3.4]octan-7-yl)-2-(trifluoromethyl)benzonitrile] |  | 102 |  | 0.209
13 | Cc1cc(N2C(=O)C3(CCC3)N(c3ccc(OC4CCN(C)CC4)cc3)C2=S)ccc1C#N [Compound 17, 2-Methyl-4-(5-(4-((1-methylpiperidin-4-yl)oxy)phenyl)-8-oxo-6-thioxo-5,7-diazaspiro[3.4]octan-7-yl)benzonitrile] |  | 105 |  | 0.17
14 | CN1CCC(Oc2ccc(N3C(=S)N(c4ccc(C#N)c(Cl)c4)C(=O)C34CCC4)cn2)CC1 [Compound 24, 2-Chloro-4-(5-(6-((1-methylpiperidin-4-yl)oxy)pyridin-3-yl)-8-oxo-6-thioxo-5,7-diazaspiro[3.4]octan-7-yl)benzonitrile hydrochloride] | 0.0955 | 102 |  | 
